Data as given in patent publication US9745328B2, “Flap modulators” (JANSSEN PHARMACEUTICA NV, priority 2013, dated 2017).
pIC50, pKi: −log10 of the molar value. Like-named read-outs stand apart in the source and are kept apart here.

Assays:
human FLAP = human FLAP (Homo sapiens (Human), UniProt P20292); assay: FLAP binding assay (HTRF format)
In short: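 Samples were run in duplicate on each of two plates and the plate results averaged. Read-out is the HTRF signal ratio.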

[1] = tested on: leukotriene pathway in human whole blood (LTB4); assay: Human whole blood assay (LTB4 levels after calcium ionophore A23187 stimulation); assay type: cell-based; details: read-out: Human Whole Blood LTB4 IC50 1:1
Method: The ability of the compounds of the present invention to treat a FLAP-mediated disease and/or disorder, or associated symptoms or complications thereof, was determined using the following procedures. Binding assay data represent the average value obtained from two different assay plates, with samples run in duplicate on each plate. Human whole blood assay data represent a single replicate on an assay plate using whole blood from at least one healthy donor.
An in vitro cellular assay was performed using human whole blood collected in heparin-containing tubes, which was used to test the ability of compounds to modulate the leukotriene pathway in human whole blood. The blood was diluted 1:1 in RPMI medium, pre-incubated for 15 min at 37° Celsius with test compounds at various concentrations, and then stimulated with calcium ionophore, A23187 (7 μg/mL), for 30 min at 37° Celsius. The samples were then centrifuged and plasma was removed. The plasma was diluted in assay buffer and LTB4 levels were measured using a commercial kit (Enzo Life Sciences). The concentration of each compound that was required for half-maximal inhibition (modulation) of recombinant enzyme activity (IC50) was calculated by a 4-parameter equation using the program GraphPad Prism (GraphPad software).

[2] = human FLAP wild type, Table 6 (additional runs)
[3] = Homo sapiens, human whole blood diluted 1:1, A23187 stimulation, Table 6 (additional runs)
[4] = Table 6 (additional runs), human FLAP wild type
[5] = Homo sapiens, Table 6 (additional runs), human whole blood diluted 1:1, A23187 stimulation
[6] = Homo sapiens, human whole blood diluted 1:1 in RPMI, A23187 stimulation, LTB4

Chain of human FLAP (P20292 whole entry): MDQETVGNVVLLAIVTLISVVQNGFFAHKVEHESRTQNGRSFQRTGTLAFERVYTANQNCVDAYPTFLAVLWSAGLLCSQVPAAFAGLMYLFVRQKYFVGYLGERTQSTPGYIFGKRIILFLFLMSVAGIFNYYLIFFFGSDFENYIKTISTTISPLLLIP

| SMILES | pIC50 [1, 3] | pKi (human FLAP; [4]) | pIC50 [1, 5] | also measured |
| --- | --- | --- | --- | --- |
| CC(O)CN1CCC(S(=O)(=O)c2ncccc2-c2ccc(-c3cnc(N)cn3)c(F)c2)CC1 (racemic) [Example 905, 1-[4-({3-[4-(5-Aminopyrazin-2-yl)-3-fluorophenyl]pyridin-2-yl}sulfonyl)piperidin-1-yl]propan-2-ol] | 7.28 | – | – | pKi (human FLAP; [2]): 7.24 |
| C[C@@H](NS(=O)(=O)c1ccccc1-c1ccc(-c2cnc(N)cn2)c(F)c1)C(F)(F)F [Example 20, (S)-4′-(5-Aminopyrazin-2-yl)-3′-fluoro-N-[(S)-2,2,2-trifluoro-1-methylethyl]biphenyl-2-sulfonamide] | – | 9.05 | – | pIC50 ([1]; Table 6 (additional runs), human whole blood diluted 1:1, A23187 stimulation): 8.07 |
| CCCS(=O)(=O)Nc1ccccc1-c1ccc(-c2cnc(N)cn2)c(F)c1 [Example 36, N-[4′-(5-Aminopyrazin-2-yl)-3′-fluorobiphenyl-2-yl]propane-1-sulfonamide] | – | 8.09 | 6.86 | – |
| Nc1cnc(-c2ccc(-c3ccccc3S(=O)(=O)N3CCCCC3)cc2F)cn1 [Example 43, 5-[3-fluoro-2′-(piperidin-1-ylsulfonyl)biphenyl-4-yl]pyrazin-2-amine] | – | 8.52 | 7.42 | – |
| Nc1cnc(-c2ccc(-c3ccccc3S(=O)(=O)N3CCNCC3)cc2F)cn1 [Example 46, 5-[3-Fluoro-2′-(piperazin-1-ylsulfonyl)biphenyl-4-yl]pyrazin-2-amine] | – | 7.21 | 6.75 | – |
| CN1CCN(S(=O)(=O)c2ccccc2-c2ccc(-c3cnc(N)cn3)c(F)c2)CC1 [Example 54, 5-{3-Fluoro-2′-[(4-methylpiperazin-1-yl)sulfonyl]biphenyl4-yl}pyrazin-2-amine] | – | 7.60 | 7.38 | – |
| N#CC1CCN(S(=O)(=O)c2ccccc2-c2ccc(-c3cnc(N)cn3)c(F)c2)CC1 [Example 64, 1-{[4′-(5-Aminopyrazin-2-yl)-3′-fluorobiphenyl-2-yl]sulfonyl}piperidine-4-carbonitrile] | – | 8.72 | 7.88 | – |
| Nc1cnc(-c2ccc(-c3ccccc3S(=O)(=O)N3CCC(O)CC3)cc2F)cn1 [Example 67, 1-{[4′-(5-Aminopyrazin-2-yl)-3′-fluorobiphenyl-2-yl]sulfonyl}piperidin-4-ol] | – | 8.38 | 7.77 | – |
| Nc1cnc(-c2ccc(-c3ccccc3S(=O)(=O)N3CCC(CO)CC3)cc2F)cn1 [Example 68, (1-{[4′-(5-Aminopyrazin-2-yl)-3′-fluorobiphenyl-2-yl]sulfonyl}piperidin-4-yl)methanol] | – | 8.96 | 7.96 | – |
| Nc1cnc(-c2ccc(-c3ccccc3S(=O)(=O)N3CCC[C@@H]3CO)cc2F)cn1 [Example 91, (R)-(1-((4′-(5-aminopyrazin-2-yl)-3′-fluoro-[1,1′-biphenyl]-2-yl)sulfonyl)pyrrolidin-2-yl)methanol] | – | 8.33 | 7.42 | – |
| Nc1cnc(-c2ccc(-c3ccccc3S(=O)(=O)NC[C@H](O)c3ccccc3)cc2F)cn1 [Example 117, (R)-4′-(5-aminopyrazin-2-yl)-3′-fluoro-N-(2-hydroxy-2-phenylethyl)-[1,1′-biphenyl]-2-sulfonamide] | – | 9.15 | 8.18 | – |
| CC(C)N(CCO)S(=O)(=O)c1ccccc1-c1ccc(-c2cnc(N)cn2)c(F)c1 [Example 141, 4′-(5-Aminopyrazin-2-yl)-3′-fluoro-N-(2-hydroxyethyl)-N-(1-methylethyl)biphenyl-2-sulfonamide] | – | 9.15 | 8.48 | – |
| Nc1cnc(-c2ccc(-c3ccccc3S(=O)(=O)N[C@H]3c4ccccc4C[C@@H]3O)cc2F)cn1 [Example 158] | – | 9.22 | 8.85 | – |
| Nc1cnc(-c2ccc(-c3ccccc3S(=O)(=O)N[C@@H]3c4ccccc4C[C@H]3O)cc2F)cn1 [Example 159, 4′-(5-aminopyrazin-2-yl)-3′-fluoro-N-((1R,2R)-2-hydroxy-2,3-dihydro-1H-inden-1-yl)-[1,1′-biphenyl]-2-sulfonamide] | – | 9.10 | 8.89 | – |
| Nc1cnc(-c2ccc(-c3ccccc3S(=O)(=O)N[C@H]3c4ccccc4C[C@H]3O)cc2F)cn1 [Example 160, 4′-(5-aminopyrazin-2-yl)-3′-fluoro-N-((1S,2R)-2-hydroxy-2,3-dihydro-1H-inden-1-yl)-[1,1′-biphenyl]-2-sulfonamide] | – | 9.40 | 8.28 | pKi (human FLAP; human FLAP wild type, a calculated value of 0.000 indicates Ki less than 1 nM): > 9.00 |
| Nc1cnc(-c2ccc(-c3ccccc3S(=O)(=O)C3CCCC3)cc2F)cn1 [Example 195, 5-[2′-(Cyclopentylsulfonyl)-3-fluorobiphenyl-4-yl]pyrazin-2-amine] | – | 8.64 | 7.16 | – |
| Nc1cnc(-c2ccc(-c3ccccc3S(=O)(=O)C3CCC3)cc2F)cn1 [Example 196, 5-[2′-(Cyclobutylsulfonyl)-3-fluorobiphenyl-4-yl]pyrazin-2-amine] | – | 8.11 | 7.02 | – |

| SMILES | pIC50 [1, 3] | pKi (human FLAP; [4]) | pIC50 [1, 5] | also measured |
| --- | --- | --- | --- | --- |
| CCCCCCS(=O)(=O)c1ccccc1-c1ccc(-c2cnc(N)cn2)c(F)c1 [Example 198, 5-[3-Fluoro-2′-(hexylsulfonyl)biphenyl-4-yl]pyrazin-2-amine] | – | 7.14 | 6.09 | – |
| CN1CCN(S(=O)(=O)c2cc(C(F)(F)F)ccc2-c2ccc(-c3cnc(N)cn3)c(F)c2)CC1 [Example 212, 5-{3-Fluoro-2′-[(4-methylpiperazin-1-yl)sulfonyl]-4′-(trifluoromethyl)biphenyl-4-yl}pyrazin-2-amine] | – | 9.10 | 8.28 | – |
| C[C@@H](CO)NS(=O)(=O)c1ccccc1-c1ccc(-c2ccc(N)nc2)c(F)c1 [Example 347, (S)-4′-(6-aminopyridin-3-yl)-3′-fluoro-N-(1-hydroxypropan-2-yl)-[1,1′-biphenyl]-2-sulfonamide] | – | – | 6.79 | pIC50 [1, 6]: 6.79 |
| CC(C)(C)NS(=O)(=O)c1ccccc1-c1ccc(-c2cnc3[nH]ccc3c2)c(F)c1 [Example 367, N-tert-Butyl-3′-fluoro-4′-(1H-pyrrolo[2,3-b]pyridin-5-yl)biphenyl-2-sulfonamide] | – | 9.05 | 8.25 | – |
| CCN(CC)S(=O)(=O)c1ccccc1-c1ccc(-c2cnc3[nH]ccc3n2)c(F)c1 [Example 373, N-Diethyl-3′-fluoro-4′-(5H-pyrrolo[2,3-b]pyrazin-2-yl)biphenyl-2-sulfonamide] | – | 9.10 | 8.18 | – |
| CC(C)S(=O)(=O)c1ncccc1-c1ccc(-c2cnc(N)cn2)c(F)c1 [Example 395, 5-(2-Fluoro-4-{2-[(1-methylethyl)sulfonyl]pyridin-3-yl}phenyl)pyrazin-2-amine] | 7.57 | – | – | – |
| CC(C)(C)NS(=O)(=O)c1ccccc1-c1ccc(-c2cnc(N)c(N)n2)c(F)c1 [Example 428, N-tert-Butyl-4′-(5,6-diaminopyrazin-2-yl)-3′-fluorobiphenyl-2-sulfonamide] | 8.36 | – | – | pKi (human FLAP; [2]): 8.37 |
| CC(C)(C)NS(=O)(=O)c1ccccc1-c1ccc(-c2cnc(N)c(Cl)n2)c(F)c1 [Example 441, 4′-(5-Amino-6-chloropyrazin-2-yl)-N-tert-butyl-3′-fluorobiphenyl-2-sulfonamide] | 8.19 | – | – | pKi (human FLAP; [2]): 9.10 |
| Nc1cnc(-c2ccc(-c3ccccc3OC(F)(F)F)cc2F)cn1 [Example 475, 5-[3-Fluoro-2′-(trifluoromethoxy)biphenyl-4-yl]pyrazin-2-amine] | 5.38 | – | – | pKi (human FLAP; [2]): 7.05 |
| Nc1cnc(-c2ccc(-c3ccccc3O)cc2F)cn1 [Example 476, 4′-(5-aminopyrazin-2-yl)-5′-fluorobiphenyl-2-ol] | 6.46 | – | – | pKi (human FLAP; [2]): 7.62 |
| Nc1cnc(-c2ccc(-c3ccccc3S(=O)(=O)c3ccccc3)cc2F)cn1 [Example 477, 5-[3-Fluoro-2′-(phenylsulfonyl)biphenyl-4-yl]pyrazin-2-amine] | 6.57 | – | – | pKi (human FLAP; [2]): 7.83 |
| Nc1cnc(-c2ccc(-c3ccccc3C(=O)N3CCS(=O)(=O)CC3)cc2F)cn1 [Example 509, 5-{2′-[(1,1-Dioxidathiomorpholin-4-yl)carbonyl]-3-fluorobiphenyl-4-yl}pyrazin-2-amine] | 6.80 | – | – | – |
| Nc1ccnc(Oc2ccccc2-c2ccc(-c3cnc(N)nc3)c(F)c2)n1 [Example 529] | 7.10 | – | – | – |
| Nc1cnc(-c2ccc(-c3ccccc3S(=O)(=O)NCC3(O)CNC3)cc2F)cn1 [Example 664] | < 6.00 | – | – | pIC50 [1, 6]: < 6.00 |
| C[C@H](NC(=O)c1cc(C(F)(F)F)ccc1-c1ccc(-c2cnc(N)nc2)c(F)c1)C(F)(F)F [Example 788, 2-[4-(2-Aminopyrimidin-5-yl)-3-fluoro-phenyl]-5-(trifuoromethyl)-N-[(1S)-2,2,2-trifluoro-1-methyl-ethyl]enzamide] | 5.74 | – | – | – |
| CC(C)(C)C(=O)Nc1ncccc1-c1ccc(-c2cnc3[nH]ccc3c2)c(F)c1 [Example 802, N-{3-[3-Fluoro-4-(1H-pyrrolo[2,3-b]pyridin-5-yl)phenyl]pyridin-2-yl}-2,2-dimethylpropanamide] | < 6.00 | – | – | – |
| Nc1cnc(-c2ccc(-c3ccccc3-c3ccc(N)nn3)cc2F)cn1 [Example 863] | 6.85 | – | – | – |
